Laboratory results from patent US6486144B1, “Method of treatment of liver tumors and pharmaceutical compositions for use therein” (priority 1997, dated 2002).
“And” between values parts separate entries of the source, which are not always exact repeats. Equal entries are not always repeated. “Also recorded” adds a separate entry of the source.

Legend:
[1] = tested on: human colon cancer cells LoVo; experiment: in vitro growth of human colon cancer cells LoVo; type: cell-based; conditions: treated for 10 days
Method: (§1) Results are % of control ±SEM
(§2) LoVo cells were treated for 10 days, while HepG2 cells were treated for 5 days, with D3 or EB1089.

[2] = tested on: human hepatoma cell line, Hep G2; experiment: in vitro growth of human hepatoma cell line Hep G2 (thymidine uptake); type: cell-based; conditions: for % of control ±SEM: treated for 5 days
Method: as §1, §2

[3] = Phase 1 trial of hepatic artery infusion: safety, serum calcium; type: in vivo, human
Description: Regular assay of LFTs, UECs, and calcium and phosphate levels, together with AFP or CEA levels.
Patients 3, 5 and 6 were initially given 2 mcg/day, and then four weeks of 5 mcg/week.
Patient 4 was hypercalcaemic due to a paraneoplastic phenomena prior to treatment, and was therefore given lower dosages.
Patient 7 was commenced on the same dosage regimen as patients 3, 5 and 6 but was withdrawn from the trial prior to starting 10 mcg/day due to progression of their disease.
Calcium levels—looking for the development of hypercalcaemia
UECs and LFTs—looking for unexpected effects upon hepatic and renal function.

[4] = tested on: liver cancers (hepatoma or colorectal cancer metastases); experiment: Phase 1 trial of hepatic artery infusion: tumour marker (CEA or AFP) response; type: in vivo, human; conditions: for patients with at least a limited response (fall in the rate of rise of tumour marker): hepatic artery infusion
Description: 2. To investigate the effects of such an infusion upon liver cancers by monitoring of tumour marker levels and their rate of rise. […] Regular assay of LFTs, UECs, and calcium and phosphate levels, together with AFP or CEA levels. CEA or AFP levels—looking for evidence of response of the tumours to treatment

[5] = pig model, intravenous versus hepatic arterial infusion, serum calcium; type: in vivo, Female Landrace pigs; conditions: for calcium levels: pig
Description: Female Landrace pigs (minimal disease) of weight 15-50 kg.
This infusion was delivered for a one or two week period, after which the animal was not treated for 4 weeks to allow any induced hepatic enzymes to diminish. The animal was then “crossed over” those whose first infusion was via the hepatic artery had their pump connected to an intravenous catheter and vice versa.
Blood was taken regularly and assayed foe calcium levels, LFTs and UECs.

[6] = type: physicochemical
Method: To illustrate the solubility of vitamin D compound in lipiodol radiolabelled vitamin D3 was dissolved in lipiodol at various amounts and the compared to the solubility of radiolabelled vitamin D3.

[7] = 2 mcg/day administered orally; cited from earlier work
breast cancer = conditions: topical, cited from earlier work
SK-Hep = experiment: effect of EB1089 on hepatoma cell line SK-Hep; type: cell-based; set-up: unit not given here; conditions: day 5, 5% charcoal treated media, repeated experiments
Description: (§3) (All experiments carried out in 5% charcoal treated media. All day 5. Successive lines of results for a particular cell line are the results for repeated experiment)

Hep 1-6 = experiment: effect of EB1089 on hepatoma cell line Hep 1-6; type: cell-based; set-up: unit not given here; conditions: day 5, 5% charcoal treated media, repeated experiments
Description: as §3

HTC = experiment: effect of EB1089 on hepatoma cell line HTC; type: cell-based; set-up: unit not given here; conditions: day 5, 5% charcoal treated media, repeated experiments
Description: as §3

NovoKoff = experiment: effect of EB1089 on hepatoma cell line NovoKoff; type: cell-based; set-up: unit not given here; conditions: day 5, 5% charcoal treated media, repeated experiments
Description: as §3

Morris = experiment: effect of EB1089 on hepatoma cell line Morris; type: cell-based; set-up: unit not given here; conditions: day 5, 5% charcoal treated media, repeated experiments
Description: as §3

PCL = experiment: effect of EB1089 on hepatoma cell line PCL; type: cell-based; set-up: unit not given here; conditions: day 5, 5% charcoal treated media, repeated experiments
Description: as §3

human hepatoma = conditions: cited from earlier work

## C=C1/C(=C\C=C2/CCC[C@]3(C)[C@@H]([C@H](C)CCCC(C)(C)O)CC[C@@H]23)C[C@@H](O)C[C@@H]1O [1.25(OH)2D3, 1.25-dihydroxycholecalciferol]
[1]; 10^−7 M
  % of control ±SEM: 34.2 ± 3.8 % of control
[1]; 10^−8 M
  % of control ±SEM: 53.1 ± 5.0 % of control
[1]; 10^−9 M
  % of control ±SEM: 74.2 ± 6.8 % of control
[1]; 10^−10 M
  % of control ±SEM: 96.5 ± 12.9 % of control
[1]; 10^−11 M
  % of control ±SEM: 127.4 ± 7.1 % of control
[2]; Hep G2, 10^−11M
  inhibition of growth: considerably less effective
[2]; Hep G2, reduction in thymidine uptake, dose dependent (FIG. 1)
  inhibition of growth: 95%
[2]; HepG2, 10^−7 M
  % of control ±SEM: 7.1 ± 6.3 % of control
[2]; HepG2, 10^−8 M
  % of control ±SEM: 8.6 ± 6.3 % of control
[2]; HepG2, 10^−9 M
  % of control ±SEM: 13.8 ± 6.4 % of control
[2]; HepG2, 10^−10 M
  % of control ±SEM: 56.6 ± 6.7 % of control
[2]; HepG2, 10^−11 M
  % of control ±SEM: 105.6 ± 6.6 % of control
[3]; hepatic arterial infusion, 15 mcg/day
  hypercalcaemia developed: two out of three patients
[3]; hepatic artery infusion, seven patients
  derangement of hepatic or renal function: Nor did any patient experience any derangement of hepatic or renal function
[3]; hepatic artery infusion, seven patients, listed as 1.25(OH)D3
  unexpected adverse reaction or side effect to the infusion: No patient suffered any unexpected adverse reaction or side effect; also recorded: safe and without unexpected side effects
[3]; intraarterially to the liver, patients
  dose administered without any observable systemic toxicity: at least 10 mcg/day
[3]; patient with pre existing hypercalcaemia (FIG. 3)
  calcium level: did not rise with treatment
[3]; patients 1 and 2, lower doses
  hypercalcaemia during treatment: Neither patients 1 nor 2 became hypercalcaemic
[4]
  patients with at least a limited response (fall in the rate of rise of tumour marker): 4 of 7 patients
[4]; patient 1
  tumour marker level: dramatically increased at the onset of treatment but this was followed by an equally dramatic fall in the level
[4]; patient 2
  tumour marker level: levelling off of the rate of rise with time
[4]; patient 3
  tumour marker level: dramatic fall in marker level initially, but later this resumed it rise
[4]; patient 7
  rate of rise of CEA levels: appears to have slowed somewhat
[4]; patients 5 and 6
  CEA levels rate of rise: did not appear to have any response to treatment
[5]; hepatic arterial infusion, similar dosage, listed as 1.25(OH)D3
  calcium levels: does not affect calcium levels; also recorded: does not produce the hypercalcaemia
[5]; intravenous infusion
  calcium levels: results in hypercalcaemia
[5]; pigs, either route
  LFTs and UECs: normal in all animals throughout
  unexpected reaction: No pig suffered any unexpected reaction
[6]; in 1 ml lipiodol
  amount readily dissolved: ≥ 2 mg
[7]
  hypercalcaemia, share of patients: 50 % of patients

## C=C1/C(=C\C=C2/CCC[C@]3(C)[C@@H]([C@H](C)/C=C/[C@@H](O)C4CC4)CC[C@@H]23)C[C@@H](O)C[C@@H]1O [Calcipotriol, calcipotriol]
Breast cancer; of the 19 patients treated
  patients with a minimal response: 1 patients
  patients with a significant response: 3 patients
Breast cancer
  patients who became hypercalcaemic during treatment: 2 of the 19 patients

## C=C1/C(=C\C=C2/CCC[C@]3(C)[C@@H]([C@H](C)/C=C/C=C/C(O)(CC)CC)CC[C@@H]23)C[C@@H](O)C[C@@H]1O [EB1089, 1 α.25 (OH)2 22.24 diene 24.26.27 trihomo D3]
[1]; 10^−7 M
  % of control ±SEM: 40.5 ± 10.7 % of control
[1]; 10^−8 M
  % of control ±SEM: 51.0 ± 10.3 % of control
[1]; 10^−9 M
  % of control ±SEM: 73.3 ± 11.7 % of control
[1]; 10^−10 M
  % of control ±SEM: 55.3 ± 13.7 % of control
[1]; 10^−11 M
  % of control ±SEM: 64.7 ± 12.7 % of control
[2]; HepG2, 10^−7 M
  % of control ±SEM: 11.2 ± 2.7 % of control
[2]; HepG2, 10^−8 M
  % of control ±SEM: 13.1 ± 2.8 % of control
[2]; HepG2, 10^−9 M
  % of control ±SEM: 13.2 ± 2.7 % of control
[2]; HepG2, 10^−10 M
  % of control ±SEM: 49.1 ± 2.9 % of control
[2]; HepG2, 10^−11 M
  % of control ±SEM: 41.7 ± 3.6 % of control
SK-Hep; 10^8 M
  effect on hepatoma cell line: 63.1 ± 16.2 and 71.3 ± 11.8 and 83.1 ± 4.2 and 95.6 ± 12.2
SK-Hep; 10^9 M
  effect on hepatoma cell line: 52.1 ± 8.8 and 61.6 ± 12.2 and 88.4 ± 4.1 and 103.1 ± 12.4
SK-Hep; 10^11 M
  effect on hepatoma cell line: 82 ± 9.2 and 78.8 ± 11.5 and 118.3 ± 26.4 and 66.9 ± 36.9
SK-Hep; 10^-10 M
  effect on hepatoma cell line: 52.1 ± 8.6 and 61.1 ± 16.6 and 91.0 ± 4.5 and 103.8 ± 11.7
Hep 1-6; Hep 1-6, 10^8 M
  effect on hepatoma cell line: 63.9 ± 7.0 and 113.4 ± 5.6
Hep 1-6; Hep 1-6, 10^9 M
  effect on hepatoma cell line: 78.1 ± 11.4 and 106.7 ± 5.4
Hep 1-6; Hep 1-6, 10^11 M
  effect on hepatoma cell line: 103.4 ± 9.2 and 98.1 ± 4.3
Hep 1-6; Hep 1-6, 10^-10 M
  effect on hepatoma cell line: 110.8 ± 13.8 and 103.5 ± 4.5
HTC; 10^7 M
  effect on hepatoma cell line: 95.3 ± 17.7 and 57.9 ± 7.2
HTC; 10^8 M
  effect on hepatoma cell line: 86.9 ± 15.0 and 63.9 ± 12.5
HTC; 10^9 M
  effect on hepatoma cell line: 100.4 ± 15.4 and 97.4 ± 13.8
HTC; 10^11 M
  effect on hepatoma cell line: 98.8 ± 15.5 and 95.9 ± 13.0
HTC; 10^-10 M
  effect on hepatoma cell line: 113.0 ± 22.1 and 107.8 ± 12.7
NovoKoff; 10^7 M
  effect on hepatoma cell line: 91.5 ± 14.5 and 84.6 ± 17.0
NovoKoff; 10^8 M
  effect on hepatoma cell line: 106.0 ± 18.1 and 79.0 ± 18.4
NovoKoff; 10^9 M
  effect on hepatoma cell line: 103.7 ± 13.8 and 95.4 ± 18.2
NovoKoff; 10^11 M
  effect on hepatoma cell line: 131.0 ± 15.9 and 92.6 ± 17.6
NovoKoff; 10^-10 M
  effect on hepatoma cell line: 116.3 ± 22.1 and 94.0 ± 21.4
Morris; 10^7 M
  effect on hepatoma cell line: 136.0 ± 12.5 and 80.1 ± 5.2
Morris; 10^8 M
  effect on hepatoma cell line: 134.0 ± 13.3 and 83.3 ± 4.7
Morris; 10^9 M
  effect on hepatoma cell line: 117.8 ± 11.7 and 79.1 ± 4.9
Morris; 10^10 M
  effect on hepatoma cell line: 118.0 ± 11.9 and 88.3 ± 3.9
Morris; 10^-11 M
  effect on hepatoma cell line: 118.0 ± 14.3 and 90.8 ± 5.9
PCL; 10^7 M
  effect on hepatoma cell line: 98.5 ± 4.5 and 106.0 ± 9.1
PCL; 10^8 M
  effect on hepatoma cell line: 101.6 ± 11.5 and 105.2 ± 4.9
PCL; 10^9 M
  effect on hepatoma cell line: 98.3 ± 6.5 and 95.1 ± 3.3
PCL; 10^10 M
  effect on hepatoma cell line: 92.5 ± 6.6 and 100.1 ± 2.1
PCL; 10^11 M
  effect on hepatoma cell line: 102.5 ± 10.0 and 95.9 ± 2.9

## CC/C(=C(\c1ccccc1)c1ccc(OCCN(C)C)cc1)c1ccccc1 [Tamoxifen]
Human hepatoma
  survival: significantly, but modestly, improve survival

## C=C1CC[C@H](O)C/C1=C/C=C1\CCC[C@]2(C)[C@@H]([C@H](C)CCCC(C)C)CC[C@@H]12 [vitamin D3, cholecalciferol]
[4]
  patients with at least a limited response (fall in the rate of rise of tumour marker): 4 of 7 patients
[6]
  solubility in lipiodol compared with aqueous medium: substantially more soluble in lipiodol
